From patent US6875760B2 (Novo Nordisk A/S, priority 1999, dated 2005)

What follows are compounds tested against T1, cloned human glucagon receptor (Homo sapiens, UniProt P47871) (assay: Glucagon Binding Assay (II)). Settings: not given.
T1 construct: expressed in transfected cells; plasma membrane preparation
Procedure: Binding of compounds to the glucagon receptor was determined in a competition binding assay using the cloned human glucagon receptor.
The receptor inserted in the pLJ6′ expression vector using EcoRI/SSt1 restriction sites (Lok et al.) was expressed in a baby hamster kidney cell line (A3 BHK 570-25).
The homogenate was resuspended and centrifuged again. The final precipitate containing the plasma membranes was suspended in buffer and stored at −80° C. until use.
Binding assays were carried out in duplicate in polypropylene tubes or microtiter plates. The buffer used in this assay was 50 mM HEPES pH 7.4 containing 5 mM EGTA, 5 mM MgCl2 and 0.005% Tween 20. Sample (glucagon (Bachem CA) or test compounds) was added to each tube or well. Tracer (˜25.000 cpm) was diluted in buffer and was added to each tube or well. 0.5 mg freshly thawed plasma membrane protein diluted in buffer was then added in aliquots to each tube or well. Tubes or plates were incubated at 37° C. for 1 hour. Non-specific binding was determined with 10^−7 M of glucagon. Bound tracer and unbound tracer were then separated by vacuum filtration. The tubes or wells were washed twice with 0.01% Triton X-100 buffer. Scintillation fluid was added to the plates and radioactivity was quantified using a scintillation counter.

T1 sequence (P47871 26-477): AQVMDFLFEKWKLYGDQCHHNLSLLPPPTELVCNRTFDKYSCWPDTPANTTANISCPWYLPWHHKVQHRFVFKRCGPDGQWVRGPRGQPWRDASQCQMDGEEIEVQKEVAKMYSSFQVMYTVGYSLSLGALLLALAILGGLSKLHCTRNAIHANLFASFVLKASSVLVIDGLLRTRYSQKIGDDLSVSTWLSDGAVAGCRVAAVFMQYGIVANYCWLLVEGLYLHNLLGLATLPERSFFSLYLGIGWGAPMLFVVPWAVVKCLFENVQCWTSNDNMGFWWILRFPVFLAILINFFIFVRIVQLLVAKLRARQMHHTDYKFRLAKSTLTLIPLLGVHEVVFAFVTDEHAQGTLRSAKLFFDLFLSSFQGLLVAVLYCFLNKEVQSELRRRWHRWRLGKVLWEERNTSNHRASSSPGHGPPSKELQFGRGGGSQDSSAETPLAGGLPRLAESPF

| Compound | IC50 |
| --- | --- |
| CC(C)c1ccc(NC(=O)N(Cc2ccc(C(=O)NCCC(=O)O)cc2)C2CCC(C(C)(C)C)CC2)cc1 (stereo not drawn) [drawing 1170] | 35 nM |

Same assay, conditions: plasma membranes of BHK cells expressing the receptor; read-out: Glu Bd Assay (II) IC50

| IC50 | Compound |
| --- | --- |
| 254 nM | CC(C)(C)C1CCC(N(Cc2ccc(C(=O)NCCC(=O)O)s2)C(=O)Nc2ccc(OC(F)(F)F)cc2)CC1 (stereo not drawn) [Example 113, 3-{5-[1-(4-tert-Butylcyclohexyl)-3-(4-trifluoromethoxyphenyl)ureidomethyl]thiophene-2-carbonylamino)propionic acid] |
| 437 nM | CCOC(=O)C(C)(C)C1CCC(N(Cc2ccc(C(=O)NCCC(=O)O)cc2)C(=O)Nc2ccc(OC(F)(F)F)cc2)CC1 (stereo not drawn) [Example 611, 2-{4-[1-[4-(2-Carboxyethylcarbamoyl)benzyl]-3-(4-trifluoromethoxyphenyl)ureido]cyclohexyl}-2-methylpropionic acid ethyl ester] |
| 112 nM | CC1(C)[C@@H]2CC[C@@H](CN(Cc3ccc(C(=O)NCCC(=O)O)cc3)C(=O)Nc3ccc(OC(F)(F)F)cc3)[C@@H]1C2 [Example 234, 3-{4-[1-([(1S,2R,5R)-6,6-Dimethylbicyclo[3.1.1]hept-2-yl]methyl)-3-(4-trifluoromethoxyphenyl)ureidomethyl]benzoylamino}propionic acid] |
| 119 nM | CC(C)(C)C1CCC(N(Cc2ccc(C(=O)NCCC(=O)O)cc2)C(=O)Nc2ccc(SC(F)(F)F)cc2)CC1 (stereo not drawn) [Example 101, 3-{4-[1-(4-tert-Butylcyclohexyl)-3-(4-trifluoromethylsulfanylphenyl)ureidomethyl]benzoylamino)propionic acid] |
| 446 nM | CC(C)(C)C1CCC(N(Cc2ccc(S(=O)(=O)NCCC(=O)O)cc2)C(=O)Nc2ccc(SC(F)(F)F)cc2)CC1 (stereo not drawn) [Example 105, 3-{4-[1-(4-tert-Butylcyclohexyl)-3-(4-trifluoromethylsulfanylphenyl)ureidomethyl]benzenesulfonylamino)propionic acid] |
| 7 nM | CC(C)(C)[C@H]1CC[C@H](N(Cc2ccc(C(=O)Nc3nn[nH]n3)cc2)C(=O)Nc2ccc(OC(F)(F)F)cc2)CC1 [Example 158, 4-[1-(trans-4-tert-Butylcyclohexyl)-3-(4-trifluoromethoxyphenyl)ureidomethyl]-N-(2H-tetrazol-5-yl)benzamide] |

The remaining lines, values behind:

| Compound | IC50 |
| --- | --- |
| CC(C)S(=O)(=O)Cc1cccc(NC(=O)N(Cc2ccc(C(=O)Nc3nn[nH]n3)cc2)c2ccc(C3CCCCC3)cc2)c1 [Example 389, 4-{1-(4-Cyclohexylphenyl)-3-[3-(propane-2-sulfonylmethyl)phenyl]ureidomethyl}-N-(2H-tetrazol-5-yl)benzamide] | 337 nM |
| CC(C)(C)c1ccc(CN(Cc2ccc(C(=O)NCCC(=O)O)cc2)C(=O)Nc2cc(Cl)cc(Cl)c2)cc1 [Example 108, 3-{4-[1-(4-tert-Butylbenzyl)-3-(3,5-dichlorophenyl)ureidomethyl]benzoylamino)propionic acid] | 669 nM |
| O=C(Nc1nn[nH]n1)c1ccc(CN(Cc2ccc(OC(F)(F)F)cc2)[C@H]2CC[C@H](C3CCCCC3)CC2)cc1 [Example 574, 4-({(trans-4-Cyclohexylcyclohexyl)-[4-(trifluoromethoxy)benzyl]amino}methyl)-N-(2H-tetrazol-5-yl)benzamide] | 159 nM |
| CC1CC(C)CC(N(Cc2ccc(C(=O)NCCC(=O)O)cc2)C(=O)Nc2cc(Cl)cc(Cl)c2)C1 (stereo not drawn) [Example 177, 3-{4-[3-(3,5-Dichlorophenyl)-1-(3,5-dimethylcyclohexyl)ureidomethyl]benzoylamino)propionic acid] | 454 nM |
| CC(C)(C)[C@H]1CC[C@H](N(Cc2ccc(C(=O)NCCC(=O)O)cc2)Cc2cc(Cl)cc(Cl)c2)CC1 [Example 580, 3-(4-{[(trans-4-tert-Butylcyclohexyl)-(3,5-dichlorobenzyl)amino]methyl}benzoylamino)propionic acid] | 57 nM |
| C[C@H](NC(=O)N(Cc1ccc(C(=O)NCCC(=O)O)cc1)c1ccc(C2CCCCC2)cc1)c1ccccc1 [Example 609, 3-{4-[1-(4-Cyclohexylphenyl)-3-((1S)-1-phenylethyl)ureidomethyl]benzoylamino}propionic acid] | 726 nM |

Same assay, conditions: screened at 1 μM; library compounds; read-out: displacement of the glucagon tracer when screened at 1 μM concentration in the glucagon binding assay II

| inhibition at 1 µM | Compound |
| --- | --- |
| > 50% | Cc1cc(C)cc(NC(=O)N(Cc2ccc(OCCCC(=O)O)cc2)c2ccc(C3CCCCC3)cc2)c1 [Example 219, 4-{4-[1-(4-Cyclohexylphenyl)-3-(3,5-dimethylphenyl)ureidomethyl]phenoxy}butyric acid] |
| > 50% | CC(C)(C)C1CCC(N(Cc2cccc(C(=O)NCCC(=O)O)c2)C(=O)Nc2ccc(OC(F)(F)F)cc2)CC1 (stereo not drawn) [Example 134, 3-{3-[1-(4-tert-Butylcyclohexyl)-3-(4-trifluoromethoxyphenyl)ureidomethyl]benzoylamino)propionic acid] |
| > 50% | CC1(C)C2CCC(CN(Cc3ccc(OCCCC(=O)O)cc3)C(=O)Nc3ccc(OC(F)(F)F)cc3)C1C2 (stereo not drawn) [Example 214, 4-{4-[1-(6,6-Dimethylbicyclo[3.1.1]hept-2-ylmethyl)-3-(4-trifluoromethoxyphenyl)ureidomethyl]phenoxy}butyric acid] |
| > 50% | O=C(O)CCNC(=O)c1ccc(CN(C(=O)Nc2ccc(OC(F)(F)F)cc2)C2C[C@H]2c2ccccc2)cc1 (stereo in doubt) [Example 187, 3-{4-[1-(2-Phenylcyclopropyl)-3-(4-trifluoromethoxyphenyl)ureidomethyl]benzoylamino}propionic acid] |

The remaining lines, values behind:

| Compound | inhibition at 1 µM |
| --- | --- |
| COc1ccc(CN(Cc2cccc(Oc3cccc(C(F)(F)F)c3)c2)Cc2ccc(C(=O)NCCC(=O)O)s2)cc1OC [Example 152, 3-(5-{[(3,4-Dimethoxybenzyl)-(3-[3-trifluoromethylphenoxy]benzyl)amino]methyl}thiophene-2-carbonylamino)propionic acid] | > 50% |
| O=C(O)CCCOc1ccc(CN(C(=O)Nc2cc(C(=O)O)cc(C(=O)O)c2)c2ccc(C3CCCCC3)cc2)cc1 [Example 220, 5-[3-[4-(3-Carboxypropoxy)benzyl]-3-(4-cyclohexylphenyl)ureido]isophthalic acid] | > 50% |
| CCCCc1ccc(NC(=O)N(Cc2ccc(C(=O)NCCC(=O)O)cc2)Cc2ccccc2OC(F)(F)F)cc1 [Example 116, 3-{4-[1-(2-Trifluoromethoxybenzyl)-3-(4-butylphenyl)ureidomethyl]benzoylamino)propionic acid] | > 50% |
| COc1cc(CN(Cc2ccc(C(=O)NCCC(=O)O)cc2)C(=O)Nc2ccc(C)cc2)ccc1O [Example 121, 3-{4-[1-(4-Hydroxy-3-methoxybenzyl)-3-(4-methylphenyl)ureidomethyl]benzoylamino)propionic acid] | > 50% |
| O=C(O)CCNC(=O)c1ccc(CN(Cc2ccc(Cl)cc2)Cc2ccc(Cl)cc2)s1 [Example 148, 3-(5-{[Bis-(4-chlorobenzyl)amino]methyl}thiophene-2-carbonylamino)propionic acid] | > 50% |
| O=C(O)CCNC(=O)c1ccc(CN(Cc2ccccc2Cl)CC(c2ccccc2)c2ccccc2)s1 [Example 144, 3-(5-{[(2,2-Diphenylethyl)-(2-chlorobenzyl)amino]methyl}thiophene-2-carbonylamino)propionic acid] | > 50% |
| CC(C)(C)C1CCC(N(Cc2ccc(C(=O)Nc3ccc(O)c([N+](=O)[O-])c3)cc2)C(=O)Nc2ccc(OC(F)(F)F)cc2)CC1 (stereo not drawn) [Example 163, 4-[1-(4-tert-Butylcyclohexyl)-3-(4-trifluoromethoxyphenyl)ureidomethyl]-N-(4-hydroxy-3-nitrophenyl)benzamide] | > 50% |
